The subject of test [1] is Micromonospora chokoriensis amino acid hydroxylase McPH (L-pipecolic acid 5-hydroxylase), wild type, SEQ ID NO: 2. Type of test: biochemical.
The target in test [2] is T1, Xenorhabdus doucetiae FRM16 L-proline cis-4-hydroxylase XdPH, SEQ ID NO: 8 (Xenorhabdus doucetiae, UniProt A0A068QPC1).
T1 sequence (A0A068QPC1 1-294): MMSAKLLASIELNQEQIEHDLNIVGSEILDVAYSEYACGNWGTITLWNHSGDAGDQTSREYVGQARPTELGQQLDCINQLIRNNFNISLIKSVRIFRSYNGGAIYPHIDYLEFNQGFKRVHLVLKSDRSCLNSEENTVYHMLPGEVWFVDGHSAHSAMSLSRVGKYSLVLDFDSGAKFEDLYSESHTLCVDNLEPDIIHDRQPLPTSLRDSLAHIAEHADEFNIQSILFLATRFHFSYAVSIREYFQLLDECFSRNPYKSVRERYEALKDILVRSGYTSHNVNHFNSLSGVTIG
It counts as biochemical. The settings on record: for kcat: calculated from Vmax and molecular weight.

Test [3] concerns the target Sinorhizobium meliloti 1021 L-proline cis-4-hydroxylase SmPH, SEQ ID NO: 10 (Sinorhizobium meliloti, UniProt Q92LF6). Type of test: biochemical. The note with it: for kcat: calculated from Vmax and molecular weight.
In test [4] the test system is Kordia jejudonensis amino acid hydroxylase KjPH, SEQ ID NO: 18. Type of test: biochemical. The note with it: for Km / Vmax: 20 mmol/L 2-oxoglutaric acid, 30° C.; for kcat: calculated from Vmax and molecular weight.
In test [5] the target is Gibberella zeae PH-1 L-pipecolic acid trans-4-hydroxylase GzPH, SEQ ID NO: 16 (Fusarium graminearum, UniProt I1RHG1).
Test [6] has as its target Colletotrichum gloeosporioides Nara qc5 L-pipecolic acid trans-4-hydroxylase CgPH, SEQ ID NO: 12 (Colletotrichum fructicola, UniProt L2G7W2).
Test [7] deals with Segniliparus rugosus ATCC BAA-974 L-pipecolic acid cis-5-hydroxylase SruPH, SEQ ID NO: 4 (Segniliparus rugosus, UniProt E5XT07). The note with it: for Vmax: 20 mmol/L 2-oxoglutaric acid, 30° C.; for kcat: calculated from Vmax and molecular weight.
Test [8] has as its target T2, Catenulispora acidiphila NBRC102108 L-proline cis-4-hydroxylase CaPH, SEQ ID NO: 6 (Catenulispora acidiphila, UniProt C7Q927).
T2 sequence (C7Q927 1-290): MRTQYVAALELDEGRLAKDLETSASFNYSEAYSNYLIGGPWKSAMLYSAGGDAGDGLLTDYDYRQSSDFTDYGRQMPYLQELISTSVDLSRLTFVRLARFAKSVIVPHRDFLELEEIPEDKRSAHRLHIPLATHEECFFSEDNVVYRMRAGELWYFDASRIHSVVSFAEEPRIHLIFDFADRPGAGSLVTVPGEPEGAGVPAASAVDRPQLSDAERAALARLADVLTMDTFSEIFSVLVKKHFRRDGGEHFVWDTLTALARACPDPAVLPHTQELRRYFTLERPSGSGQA
Type of test: biochemical. The note with it: substrate: L-proline; calculated from Vmax and molecular weight.

[9] abbreviates: substrate: L-pipecolic acid, 20 mmol/L 2-oxoglutaric acid, 30° C.
Where [10] appears, read: substrate: L-pipecolic acid, calculated from Vmax and molecular weight.
The mark [11] stands for this setting: substrate: L-proline, 20 mmol/L 2-oxoglutaric acid, 30° C.

Where two headings read alike, the source gives them in different places.

For the compound `O=C(O)[C@@H]1CCCCN1` [L-pipecolic acid], the Km (in general, the concentration of substrate that gives half-maximal velocity) in test [1] (setting [9]) stood at 240 µM; in test [4] (substrate: L-pipecolic acid), 490 µM. For the same compound, the Vmax in test [1] (setting [9]) turned out to be 0.06 U/mg-protein; in test [4] (substrate: L-pipecolic acid), 0.30 U/mg-protein; in test [5] (setting [9]) it was 114.94 U/mg-protein; in test [6] (setting [9]) it was 70.42 U/mg-protein; in test [7] (substrate: L-pipecolic acid), 0.05 U/mg-protein. In addition, the kcat in test [1] (setting [10]) was 0.03; in test [2] (substrate: L-pipecolic acid) it was 0.64; in test [3] (substrate: L-pipecolic acid), 0.02; in test [4] (substrate: L-pipecolic acid), 0.16; in test [5] (setting [10]), 72.48; in test [6] (setting [10]), 43.80. Further, the kcat in test [7] (substrate: L-pipecolic acid) is reported as 0.03.
With `O=C(O)[C@@H]1CCCN1` [L-proline], the “catalytic reaction efficiency for L-proline relative to that for L-pipecolic acid” value in test [1] (kcat/Km ratio) stood at 0; in test [2] (kcat/Km ratio), 119%; in test [3] (kcat/Km ratio), 114%; in test [4] (kcat/Km ratio), 115%; in test [5] (kcat/Km ratio), 0; in test [6] (kcat/Km ratio), 0. In addition, in test [7] (kcat/Km ratio), the “catalytic reaction efficiency for L-proline relative to that for L-pipecolic acid” value is recorded as 754%. The kcat in test [8] is 0.01; in test [2] (substrate: L-proline) it was 0.80; in test [3] (substrate: L-proline), 0.03; in test [4] (substrate: L-proline), 0.18; in test [7] (substrate: L-proline), 0.07. Moreover, the Vmax came to 1.44 U/mg-protein in test [2] (setting [11]), 0.06 U/mg-protein in test [3] (setting [11]), 0.34 U/mg-protein in test [4] (substrate: L-proline) and 0.13 U/mg-protein in test [7] (substrate: L-proline). Also, in test [4] (substrate: L-proline), the Michaelis constant (Km) came out at 480 µM.
